# Several values for one entry are separate records, joined by “and”; a condition that tells them apart may be missing. Equal entries are not always repeated. Where two headings read alike, the source gives them in different places.
# Legend:
# [1] = Rat PK study #2 (Compound A PO 5 mg/kg, DMSO/PEG-400/water); type: in vivo, SD rats
# Procedure: For the second rat pharmacokinetic study, the pharmacokinetics of Compound A were assessed in male SD rats. Compound A was prepared in a formulation of 5% DMSO, 40% PEG-400, and 55% Milli-Q water (see formulation in Table 2D) and delivered to animals orally (PO) at a dose of 5 mg/kg. Animals (n=3) were then monitored over a 24-hour period.
# Blood samples (~0.2 mL) were collected according to a schedule (0.083, 0.25, 0.5, 1, 2, 4, 8, and 24 h following the initial dosing) by jugular vein by cannulation and EDTA-K2 was used as anticoagulant. Within 30 minutes of collection, the samples were centrifuged at approximately 4000 times g-force for 5 minutes at 4° C. to obtain blood plasma. The plasma samples were immediately divided into two aliquots (~75 μL each), transferred to a cryogenic vial, and stored in a freezer at −75±15° C. prior to analysis.
# The concentration of Compound A in plasma samples was determined by liquid chromatography-mass spectrometry (LC-MS/MS) using a Shimadzu HPLC (DGU-405; LC-30AD XS CN; SIL-40AC XSCN; Plate Changer CN; CTO-40C CN; and CBM-40 CN) and an AB API 7500+LC/MS/MS instrument. Samples were analyzed on a Raptor Biphenyl 2.7 μm (50×2.1 mm) column. Solution A in the mobile phase was 95% water (0.1% formic acid) and solution B was 95% acetonitrile in water (0.1% formic acid), injection volume was 15 μL, and flow rate was 0.6 mL/min.
# To prepare samples for analysis, serial concentrations were prepared by diluting the stock solution of analyte with a 50% acetonitrile in water solution. 5 μL working solutions (5, 10, 20, 50, 100, 500, 1000, 5000, and 10000 ng/ml) were added to 50 μL of the blank SD rat plasma to achieve calibration standards of ~0.5 to 1000 ng/ml (0.5, 1, 2, 5, 10, 50, 100, 500, and 1000 ng/ml) in a total volume of 55 μL. Five quality control samples at 1 ng/ml, 2 ng/ml, 5 ng/ml 50 ng/ml, and 800 ng/ml for plasma were prepared independently of those used for the calibration curves. These QC samples were prepared on the day of analysis in the same way as calibration standards.
# 55 μL of standards, 55 μL of QC samples and 55 μL of unknown samples (50 μL of unknown rat plasma with 5 μL of blank solution) were added to 200 μL of acetonitrile containing IS mixture (verapamil) for precipitating protein respectively. The samples were then vortexed for 30 s. After centrifugation at 4° C., 3900 rpm for 15 min, the supernatant was diluted 3 times with water. […] of diluted supernatant was injected into the LC/MS/MS system for quantitative analysis.
# [2] = SLE (lupus) model: body weight; type: in vivo, MRL/MpJ-Faslpr mice
# Procedure: Female MRL/MpJ-Faslpr mice (The Jackson Laboratory) were used to assess the efficacy of Compound A in treating lupus. Starting when animals were 10 weeks of age, protein concentration in urine was measured using urine dipsticks.
# At the start of the study, each group in the study had two animals that were 9 weeks old, and all others were 10 weeks old. Dosing of all animals with the test compounds began when the older animals were 11 weeks old. […] […] Dosing was at a consistent time each dosing day throughout the study.
# Compound A may be formulated as illustrated in Experimental Method A (see Table 2E.). […] A stock solution of Compound A in DMSO (stock solution concentration of Compound A of 40 mg/mL) was prepared and aliquots for weekly preparations were frozen at −20° C. On each preparation day, a stock solution aliquot was thawed and diluted with other vehicle components to the desired concentration. Formulated Compound A and vehicle were at room temperature for dosing.
# The study began when the older animals were 11 weeks old, and concluded when the older animals were 19 weeks old. Body weight was recorded once a week, with the exception of two weight measurements taken the first week of the study (when the older animals were 11 weeks old). Proteinuria was measured in the urine of animals with urine dipsticks once a week, starting when the older animals were 10 weeks old. […] Blood samples were taken retro-orbitally at the start of the study to establish a baseline (15 animals, 3 per group), and when the older animals were 16 weeks (all animals) and when animals were 19 weeks (all animals) at the conclusion of the study. Blood urea nitrogen (BUN) was measured in all animals at study termination in blood samples. After blood collection, animals were euthanized, perfused with PBS, and the left kidneys were collected and weighed and fixed in 10% buffered formalin. Left kidneys were then processed to a formalin-fixed, paraffin-embedded (FFPE) block, and histology was analyzed in Periodic Acid-Schiff-stained sections (1 section per slide), using the criteria described in Alperovich et al., Lupus, 16:18-24 (2007). Right kidneys were weighed and snap-frozen at −80° C. Spleens were also collected and weighed. SLE in animals treated with a BET inhibitor and vehicle.
# [3] = SD rats, PO 5 mg/kg, DMSO/PEG-400/Milli-Q water formulation, individual animals, 5 mg/kg
# [4] = SD rats, PO 5 mg/kg, DMSO/PEG-400/Milli-Q water formulation, mean of 3 animals
# [5] = male, Sprague-Dawley, rat, plasma, po, 5 mg/kg, SD rats, PO 5 mg/kg, DMSO/PEG-400/Milli-Q water formulation, mean of 3 animals
structure (smiles),measurement,setting,value
"Cn1cc(-c2ccccc2)c(-c2cn(C)c(=O)c3[nH]c(-c4cnn(C(F)(F)F)c4)cc23)cc1=O [Compound A, 6-methyl-4-(1-methyl-2-oxo-5-phenyl-1,2-dihydropyridin-4-yl)-2-(1-(trifluoromethyl)-1H-pyrazol-4-yl)-1,6-dihydro-7H-pyrrolo[2,3-c]pyridin-7-one]",Clinical observations,"[1]; 5 mg/kg PO, 24 h, one animal soft feces at 8 h",no abnormalities recorded
same,Plasma Concentration,"[1]; SD rats, PO 5 mg/kg, DMSO/PEG-400/Milli-Q water formulation, 0.083 h, individual animals, 5 mg/kg",9.76 ng/mL and 0.719 ng/mL and 2.15 ng/mL
same,Plasma Concentration,"[1]; SD rats, PO 5 mg/kg, DMSO/PEG-400/Milli-Q water formulation, 0.25 h, individual animals, 5 mg/kg",7.42 ng/mL and 5.44 ng/mL and 12.5 ng/mL
same,Plasma Concentration,"[1]; SD rats, PO 5 mg/kg, DMSO/PEG-400/Milli-Q water formulation, 0.5 h, individual animals, 5 mg/kg",31.9 ng/mL and 15.4 ng/mL and 32.7 ng/mL
same,Plasma Concentration,"[1]; SD rats, PO 5 mg/kg, DMSO/PEG-400/Milli-Q water formulation, 1 h, individual animals, 5 mg/kg",62.6 ng/mL and 38.4 ng/mL and 101 ng/mL
same,Plasma Concentration,"[1]; SD rats, PO 5 mg/kg, DMSO/PEG-400/Milli-Q water formulation, 2 h, individual animals, 5 mg/kg",170 ng/mL and 64.8 ng/mL and 272 ng/mL
same,Plasma Concentration,"[1]; SD rats, PO 5 mg/kg, DMSO/PEG-400/Milli-Q water formulation, 4 h, individual animals, 5 mg/kg",472 ng/mL and 218 ng/mL and 496 ng/mL
same,Plasma Concentration,"[1]; SD rats, PO 5 mg/kg, DMSO/PEG-400/Milli-Q water formulation, 8 h, individual animals, 5 mg/kg",532 ng/mL and 181 ng/mL and 302 ng/mL
same,Plasma Concentration,"[1]; SD rats, PO 5 mg/kg, DMSO/PEG-400/Milli-Q water formulation, 24 h, individual animals, 5 mg/kg",2.11 ng/mL and 5.81 ng/mL and 6.35 ng/mL
same,AUClast,[1]; [3],7070 ng·h/mL and 2643 ng·h/mL and 5058 ng·h/mL
same,AUClast/D,[1]; [3],1414 mg·h/mL and 529 mg·h/mL and 1012 mg·h/mL
same,Cmax,[1]; [3],532 ng/mL and 218 ng/mL and 496 ng/mL
same,F,[1]; [3],81.5% and 30.5% and 58.3%
same,AUClast/D,[1]; [4],985 mg·h/mL
same,F,[1]; [4],56.8%
same,concentration at 1 h,"[1]; male, SD, rat, plasma, po, 5 mg/kg, SD rats, PO 5 mg/kg, DMSO/PEG-400/Milli-Q water formulation, 1 h, mean of 3 animals",67 ng/mL
same,concentration at 2 h,"[1]; male, SD, rat, plasma, po, 5 mg/kg, SD rats, PO 5 mg/kg, DMSO/PEG-400/Milli-Q water formulation, 2 h, mean of 3 animals",169 ng/mL
same,concentration at 4 h,"[1]; male, SD, rat, plasma, po, 5 mg/kg, SD rats, PO 5 mg/kg, DMSO/PEG-400/Milli-Q water formulation, 4 h, mean of 3 animals",395 ng/mL
same,concentration at 8 h,"[1]; male, SD, rat, plasma, po, 5 mg/kg, SD rats, PO 5 mg/kg, DMSO/PEG-400/Milli-Q water formulation, 8 h, mean of 3 animals",338 ng/mL
same,concentration at 0.083 h,"[1]; male, Sprague-Dawley, rat, plasma, po, 5 mg/kg, SD rats, PO 5 mg/kg, DMSO/PEG-400/Milli-Q water formulation, 0.083 h, mean of 3 animals",4.21 ng/mL
same,concentration at 0.25 h,"[1]; male, Sprague-Dawley, rat, plasma, po, 5 mg/kg, SD rats, PO 5 mg/kg, DMSO/PEG-400/Milli-Q water formulation, 0.25 h, mean of 3 animals",8.5 ng/mL
same,concentration at 0.5 h,"[1]; male, Sprague-Dawley, rat, plasma, po, 5 mg/kg, SD rats, PO 5 mg/kg, DMSO/PEG-400/Milli-Q water formulation, 0.5 h, mean of 3 animals",26.7 ng/mL
same,concentration at 24 h,"[1]; male, Sprague-Dawley, rat, plasma, po, 5 mg/kg, SD rats, PO 5 mg/kg, DMSO/PEG-400/Milli-Q water formulation, 24 h, mean of 3 animals",4.75 ng/mL
same,Tmax,"[1]; male, Sprague-Dawley, rat, plasma, po, 5 mg/kg, SD rats, PO 5 mg/kg, DMSO/PEG-400/Milli-Q water formulation, individual animals",8 h
same,AUC(0-t),[1]; [5],4920 ng·h/mL
same,Tmax,[1]; [5],5.33 h
same,Cmax,"[1]; male, Sprague-Dawley, rat, plasma, po, 5 mg/kg, SD rats, PO 5 mg/kg, DMSO/PEG-400/Milli-Q water formulation, mean of 3 animals, read-out: Cmax",415 ng/mL
same,Relative end body weight (% of Week 11) ± SEM,[2]; 1 mg/kg,114.5% ± 1.5%
same,Weight gain relative to control groups,[2]; 1 mg/kg and 10 mg/kg,improved weight gains relative to the control groups
same,Relative end body weight (% of Week 11) ± SEM,[2]; 3 mg/kg,110.7% ± 2.1%
same,Relative end body weight (% of Week 11) ± SEM,[2]; 10 mg/kg,114.4% ± 1.6%
same,Mean Body Weight,"[2]; Compound A 1 mg/kg PO QD, Week 11",35.2 g
same,Mean Body Weight,"[2]; Compound A 1 mg/kg PO QD, Week 12",36.4 g
same,Mean Body Weight,"[2]; Compound A 1 mg/kg PO QD, Week 13",37.6 g
same,Mean Body Weight,"[2]; Compound A 1 mg/kg PO QD, Week 14",38.5 g
same,Mean Body Weight,"[2]; Compound A 1 mg/kg PO QD, Week 15",38.9 g
same,Mean Body Weight,"[2]; Compound A 1 mg/kg PO QD, Week 16",40.0 g
same,Mean Body Weight,"[2]; Compound A 1 mg/kg PO QD, Week 17",39.5 g
same,Mean Body Weight,"[2]; Compound A 1 mg/kg PO QD, Week 18",39.7 g
same,Mean Body Weight,"[2]; Compound A 1 mg/kg PO QD, Week 19",40.2 g
same,Mean Body Weight,"[2]; Compound A 3 mg/kg PO QD, Week 11",35.0 g
same,Mean Body Weight,"[2]; Compound A 3 mg/kg PO QD, Week 12",35.0 g
same,Mean Body Weight,"[2]; Compound A 3 mg/kg PO QD, Week 13",36.5 g
same,Mean Body Weight,"[2]; Compound A 3 mg/kg PO QD, Week 14",37.4 g
same,Mean Body Weight,"[2]; Compound A 3 mg/kg PO QD, Week 15",37.9 g
same,Mean Body Weight,"[2]; Compound A 3 mg/kg PO QD, Week 16",38.7 g
same,Mean Body Weight,"[2]; Compound A 3 mg/kg PO QD, Week 17",38.6 g
same,Mean Body Weight,"[2]; Compound A 3 mg/kg PO QD, Week 18",38.1 g
same,Mean Body Weight,"[2]; Compound A 3 mg/kg PO QD, Week 19",38.6 g
same,Mean Body Weight,"[2]; Compound A 10 mg/kg PO QD, Week 11",35.1 g
same,Mean Body Weight,"[2]; Compound A 10 mg/kg PO QD, Week 12",35.6 g
same,Mean Body Weight,"[2]; Compound A 10 mg/kg PO QD, Week 13",37.1 g
same,Mean Body Weight,"[2]; Compound A 10 mg/kg PO QD, Week 14",37.8 g
same,Mean Body Weight,"[2]; Compound A 10 mg/kg PO QD, Week 15",38.8 g
same,Mean Body Weight,"[2]; Compound A 10 mg/kg PO QD, Week 16",39.3 g
same,Mean Body Weight,"[2]; Compound A 10 mg/kg PO QD, Week 17",39.3 g
same,Mean Body Weight,"[2]; Compound A 10 mg/kg PO QD, Week 18",39.4 g
same,Mean Body Weight,"[2]; Compound A 10 mg/kg PO QD, Week 19",39.9 g
